Assay results as given in PubChem BioAssay AID330 (DTP/NCI, 2004).
Where “and” joins values, the source holds several entries; their conditions need not be identical. Equal entries are not always repeated. Toxic doses and inconclusive results are not listed.

Tested on: P388 leukemia ip, CD2F1 mice, survival T/C
Assay: NCI In Vivo Anticancer Drug Screen. Data for tumor model P388 Leukemia (intraperitoneal) in CD2F1 (CDF1) mice
Conditions: endpoint: median survival time, higher = longer survival
Method in brief: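 Mice carrying the transplanted tumor received test compound or vehicle. Survival was recorded in each group, and the value is the treated-group measurement divided by that of the vehicle-treated control group.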

[1] = dose: 60.0 mg/kg/injection, schedule: Q01DX005 (ip), vehicle: saline with Tween-80
[2] = dose: 120.0 mg/kg/injection, schedule: Q01DX005 (ip), vehicle: saline with Tween-80
[3] = dose: 240.0 mg/kg/injection, schedule: Q01DX005 (ip), vehicle: saline with Tween-80
[4] = dose: 100.0 mg/kg/injection, schedule: Q04DX002 (ip), vehicle: saline with Tween-80
[5] = dose: 200.0 mg/kg/injection, schedule: Q04DX002 (ip), vehicle: saline with Tween-80
[6] = dose: 400.0 mg/kg/injection, schedule: Q04DX002 (ip), vehicle: saline with Tween-80
[7] = dose: 50.0 mg/kg/injection, schedule: Q01DX005 (ip), vehicle: saline with Tween-80
[8] = dose: 100.0 mg/kg/injection, schedule: Q01DX005 (ip), vehicle: saline with Tween-80
[9] = dose: 50.0 mg/kg/injection, schedule: Q01DX009 (ip), vehicle: saline
[10] = dose: 100.0 mg/kg/injection, schedule: Q01DX009 (ip), vehicle: saline
[11] = dose: 6.25 mg/kg/injection, schedule: Q01DX005 (ip), vehicle: Klucel (hydroxypropylcellulose) (HPC)
[12] = dose: 12.5 mg/kg/injection, schedule: Q01DX005 (ip), vehicle: Klucel (hydroxypropylcellulose) (HPC)
[13] = dose: 100.0 mg/kg/injection, schedule: Q01DX009 (ip), vehicle: saline with Tween-80
[14] = dose: 200.0 mg/kg/injection, schedule: Q01DX009 (ip), vehicle: saline with Tween-80
[15] = dose: 50.0 mg/kg/injection, schedule: Q01DX009 (ip), vehicle: saline with Tween-80
[16] = dose: 25.0 mg/kg/injection, schedule: Q01DX005 (ip), vehicle: saline with Tween-80

CC(=O)c1cc(C)ccc1S(C)=O (configuration not stated)
T/C (dose: 50.0 mg/kg/injection, schedule: Q01DX005 (ip), vehicle: acetone): 99 % of control | T/C (dose: 100.0 mg/kg/injection, schedule: Q01DX005 (ip), vehicle: acetone): 100 % of control | T/C (dose: 200.0 mg/kg/injection, schedule: Q01DX005 (ip), vehicle: acetone): 100 % of control

CCOC(=O)CNC(=O)OC(C)(C)C
T/C [1]: 103 % of control | T/C [2]: 100 % of control | T/C [3]: 108 % of control

C=C(/C=C/C1OC2OC(C)(C)OC2C1OC)OP(=O)(OCC)OCC (configuration not stated)
T/C [4]: 103 % of control | T/C [5]: 100 % of control | T/C [6]: 91 % of control

CCCNNC(N)=S
T/C (dose: 12.5 mg/kg/injection, schedule: Q01DX009 (ip), vehicle: other): 105 % of control | T/C (dose: 25.0 mg/kg/injection, schedule: Q01DX009 (ip), vehicle: other): 105 % of control

CC(CCO)CCCO (configuration not stated)
T/C [1]: 97 % of control | T/C [2]: 95 % of control | T/C [3]: 101 % of control

COc1ccc(C(=O)SCCCN=C(N)N)cc1
T/C [7]: 103 % of control | T/C [8]: 97 % of control

[CH3][Ge]([CH3])[CH3].[CH3][Ge]([CH3])[CH3]
T/C [9]: 95 % of control | T/C [10]: 91 % of control | T/C (dose: 200.0 mg/kg/injection, schedule: Q01DX009 (ip), vehicle: saline): 97 % of control

CC(C)CC1[NH][Sn]2([NH]C(CC(C)C)C(=O)[O]2)[O]C1=O (configuration not stated)
T/C [11]: 104 % of control | T/C [12]: 105 % of control | T/C (dose: 25.0 mg/kg/injection, schedule: Q01DX005 (ip), vehicle: Klucel (hydroxypropylcellulose) (HPC)): 104 % of control

Cc1cc(=O)oc2cc(O)c(C(=O)/C=C/N(C)C)cc12
T/C [1]: 92 % of control | T/C [2]: 95 % of control | T/C [3]: 86 % of control

CCCCCCCCCCCC[N+]1([O-])CCCCC1
T/C (dose: 12.5 mg/kg/injection, schedule: Q01DX009 (ip), vehicle: saline): 89 % of control | T/C (dose: 25.0 mg/kg/injection, schedule: Q01DX009 (ip), vehicle: saline): 91 % of control

CC(/C=N/Nc1ccccc1)=N\N=c1/scc(-c2ccc(Br)cc2)n1-c1ccc(Cl)cc1
T/C (dose: 12.5 mg/kg/injection, schedule: Q01DX001 (ip), vehicle: saline with Tween-80): 98 % of control | T/C (dose: 25.0 mg/kg/injection, schedule: Q01DX001 (ip), vehicle: saline with Tween-80): 89 % of control | T/C (dose: 50.0 mg/kg/injection, schedule: Q01DX001 (ip), vehicle: saline with Tween-80): 86 % of control

CC1(C)CC2(OC2c2ccccc2[N+](=O)[O-])C(=O)c2ccccc21 (configuration not stated)
T/C [13]: 100 % of control | T/C [14]: 100 % of control | T/C (dose: 400.0 mg/kg/injection, schedule: Q01DX009 (ip), vehicle: saline with Tween-80): 100 % of control

O=P(c1ccccc1)(c1ccccc1)c1ccccc1.O=P(c1ccccc1)(c1ccccc1)c1ccccc1.O=P(c1ccccc1)(c1ccccc1)c1ccccc1.O=P(c1ccccc1)(c1ccccc1)c1ccccc1.[Co+2].[O-][Cl+3]([O-])([O-])O
T/C [15]: 96 % of control | T/C [13]: 99 % of control

NCCSSc1ccc([N+](=O)[O-])cc1
T/C (dose: 12.5 mg/kg/injection, schedule: Q04DX002 (ip), vehicle: Klucel (hydroxypropylcellulose) (HPC)): 95 % of control | T/C (dose: 25.0 mg/kg/injection, schedule: Q04DX002 (ip), vehicle: Klucel (hydroxypropylcellulose) (HPC)): 86 % of control

COC(=O)C(Cc1ccccc1C(N)=O)(OC)OC
T/C (dose: 50.0 mg/kg/injection, schedule: Q01DX005 (ip), vehicle: saline): 98 % of control | T/C (dose: 100.0 mg/kg/injection, schedule: Q01DX005 (ip), vehicle: saline): 99 % of control | T/C (dose: 200.0 mg/kg/injection, schedule: Q01DX005 (ip), vehicle: saline): 98 % of control

CCCCC(NC(=O)c1ccccc1)C(=O)O (configuration not stated)
T/C [15]: 92 % of control | T/C [13]: 100 % of control | T/C [14]: 98 % of control

COC(=O)C1(CS(C)=O)NC(=S)NC(=O)C1C#N (configuration not stated)
T/C [1]: 106 % of control | T/C [2]: 99 % of control | T/C [3]: 97 % of control

COC(=O)c1c(C(=O)OC)c2c(C)nn3ccc1n23
T/C [16]: 96 % of control | T/C [7]: 96 % of control | T/C [8]: 98 % of control | T/C (dose: 200.0 mg/kg/injection, schedule: Q01DX005 (ip), vehicle: saline with Tween-80): 93 % of control

O=C1Cc2cccc3cccc1c23
T/C (dose: 25.0 mg/kg/injection, schedule: Q01DX009 (ip), vehicle: saline with Tween-80): 90 % of control | T/C [15]: 104 % of control | T/C [13]: 96 % of control | T/C [14]: 111 % of control

N#CC(Cc1ccccc1)c1ccccc1 (configuration not stated)
T/C (dose: 25.0 mg/kg/injection, schedule: Q01DX009 (ip), vehicle: distilled water + Tween-80): 95 % of control | T/C (dose: 50.0 mg/kg/injection, schedule: Q01DX009 (ip), vehicle: distilled water + Tween-80): 110 % of control | T/C (dose: 100.0 mg/kg/injection, schedule: Q01DX009 (ip), vehicle: distilled water + Tween-80): 93 % of control

N#C/C1=C(\C#N)N=Cc2ccccc2NCCNc2ccccc2C=N1
T/C (dose: 100.0 mg/kg/injection, schedule: Q04DX003 (ip), vehicle: saline): 91 % of control | T/C (dose: 200.0 mg/kg/injection, schedule: Q04DX003 (ip), vehicle: saline): 98 % of control | T/C (dose: 400.0 mg/kg/injection, schedule: Q04DX003 (ip), vehicle: saline): 100 % of control

CCN(CC)C1CC(=O)C2(C)C3CCC4(C)C(C(C)C5CC(C)=C(CO)C(=O)O5)CCC4C3CC3OC32C1O (configuration not stated)
T/C (dose: 4.5 mg/kg/injection, schedule: Q01DX005 (ip), vehicle: Klucel (hydroxypropylcellulose) (HPC)): 98 % of control | T/C (dose: 9.0 mg/kg/injection, schedule: Q01DX005 (ip), vehicle: Klucel (hydroxypropylcellulose) (HPC)): 93 % of control | T/C (dose: 18.0 mg/kg/injection, schedule: Q01DX005 (ip), vehicle: Klucel (hydroxypropylcellulose) (HPC)): 100 % of control | T/C (dose: 36.0 mg/kg/injection, schedule: Q01DX005 (ip), vehicle: Klucel (hydroxypropylcellulose) (HPC)): 98 % of control | T/C (dose: 72.0 mg/kg/injection, schedule: Q01DX005 (ip), vehicle: Klucel (hydroxypropylcellulose) (HPC)): 100 % of control

O=C1OC(C2OC(=O)C(=O)C2C(=O)c2ccccc2)C(C(=O)c2ccccc2)C1=O (configuration not stated)
T/C [1]: 111 % of control | T/C [2]: 108 % of control | T/C [3]: 108 % of control

COc1ccc(/C=N/Nc2cc(C)nc3cc4c(cc23)OCO4)c2ccccc12
T/C (dose: 1.56 mg/kg/injection, schedule: Q01DX005 (ip), vehicle: Klucel (hydroxypropylcellulose) (HPC)): 109 % of control | T/C (dose: 3.12 mg/kg/injection, schedule: Q01DX005 (ip), vehicle: Klucel (hydroxypropylcellulose) (HPC)): 100 % of control | T/C [11]: 100 % of control and 102 % of control | T/C [12]: 110 % of control

COc1cccc2[nH]c(-c3ccccn3)nc12
T/C [15]: 95 % of control | T/C [13]: 104 % of control | T/C [14]: 95 % of control

[Cl][Ge]([Cl])([Cl])[c]1ccccc1
T/C [9]: 100 % of control | T/C [10]: 100 % of control

CNCC(=O)c1ccc(O)c(O)c1N=O
T/C [4]: 114 % of control | T/C [5]: 108 % of control | T/C [6]: 108 % of control

CC(=O)OC[C@@]1(C)[C@@H]2CC[C@]3(C)[C@H](C(=O)C=C4[C@@H]5CC(C)(C)CC[C@]5(C(=O)O)CC[C@]43C)[C@@]2(C)CC[C@@H]1OC(C)=O
T/C [16]: 108 % of control | T/C [7]: 87 % of control and 95 % of control | T/C [8]: 93 % of control

OCC#C[C@@H]1CC[C@H]1C#CCO
T/C (dose: 50.0 mg/kg/injection, schedule: Q01DX005 (ip), vehicle: Klucel (hydroxypropylcellulose) (HPC)): 100 % of control | T/C (dose: 100.0 mg/kg/injection, schedule: Q01DX005 (ip), vehicle: Klucel (hydroxypropylcellulose) (HPC)): 103 % of control | T/C (dose: 200.0 mg/kg/injection, schedule: Q01DX005 (ip), vehicle: Klucel (hydroxypropylcellulose) (HPC)): 103 % of control

CCN(CC)C1CS(=O)(=O)OC2=C1CSCC2 (configuration not stated)
T/C (dose: 100.0 mg/kg/injection, schedule: Q04DX003 (ip), vehicle: saline with Tween-80): 102 % of control | T/C (dose: 200.0 mg/kg/injection, schedule: Q04DX003 (ip), vehicle: saline with Tween-80): 100 % of control | T/C (dose: 400.0 mg/kg/injection, schedule: Q04DX003 (ip), vehicle: saline with Tween-80): 95 % of control

CN(Cc1ccc([N+](=O)[O-])cc1)C(=O)Nc1ccc(S(=O)(=O)F)cc1
T/C (dose: 60.0 mg/kg/injection, schedule: Q01DX005 (ip), vehicle: Klucel (hydroxypropylcellulose) (HPC)): 110 % of control | T/C (dose: 120.0 mg/kg/injection, schedule: Q01DX005 (ip), vehicle: Klucel (hydroxypropylcellulose) (HPC)): 92 % of control | T/C (dose: 240.0 mg/kg/injection, schedule: Q01DX005 (ip), vehicle: Klucel (hydroxypropylcellulose) (HPC)): 92 % of control
